Source: patent US7495021B2, “Benzothiazole- and benzooxazole-4,7-dione, derivatives and their use as cdc25 phosphate inhibitors” (Societe de Conseils de Recherches et d'Applications …, priority 2001, dated 2009)
Where a name gives a salt, the structure may show the parent alone.

How the values were obtained:
[1] = test system: Mia-PaCa2 (human pancreas cancer cells); experiment: Antiproliferative activity, WST1 colorimetric test, Mia-PaCa2; assay type: cell-based; conditions: MIA PaCa-2, 96 hours treatment, up to 10 μM, read-out: CI50 on the cell proliferation of the lines Mia-Paca2
Description: (§1) iii) Characterization of the Antiproliferative Activity:
(§2) By way of example, the effect of a treatment on two human cell lines Mia-Paca2 and DU145 by the compounds of the examples described previously will be studied. The cell lines DU145 (human prostate cancer cells) and Mia-PaCa2 (human pancreas cancer cells) were acquired from the American Tissue Culture Collection (Rockville, Md., USA). The cells placed in 80 μl of Dulbecco's Modified Eagle's medium (Gibco-Brl, Cergy-Pontoise, France) completed with 10% foetal calf serum inactivated by heating (Gibco-Brl, Cergy-Pontoise, France), 50,000 units/l of penicillin and 50 mg/l of streptomycin (Gibco-Brl, 10378-057, Cergy-Pontoise, France), and 2 mM of glutamine (Gibco-Brl, Cergy-Pontoise, France) were seeded on a 96-well plate on day 0. The cells were treated on day 1 for 96 hours with increasing concentrations of each of the compounds to be tested up to 10 μM. At the end of this period, quantification of cell proliferation is evaluated by a colorimetric test based on the cleavage of the tetrazolium salt WST1 by the mitochondrial dehydrogenases in viable cells leading to the formation of formazan (Boehringer Mannheim, Meylan, France). These tests are carried out in duplicate with 8 determinations per concentration tested. For each compound to be tested, the values included in the linear part of the sigmoid were retained for a linear regression analysis and used to estimate the inhibitory concentration IC50. The products are solubilized in dimethylsulphoxide (DMSO) at 10^−2 M and used in culture with 0.1% DMSO final.

[2] = test system: DU145 (human prostate cancer cells); experiment: Antiproliferative activity, WST1 colorimetric test, DU145; assay type: cell-based; conditions: DU-145, 96 hours treatment, up to 10 μM, read-out: Cl50 on the cell proliferation of the lines DU-145
Description: as §1, §2

| IC50 [1] | IC50 [2] | melting point | SMILES |
| --- | --- | --- | --- |
| ≤ 10 µM | ≤ 10 µM |  | Cc1nc2c(s1)C(=O)C=C(NCCCN)C2=O [Example 33, 5-[(3-aminopropyl)amino]-2-methyl-1,3-benzothiazole-4,7-dione] |
|  | ≤ 10 µM |  | Cc1nc2c(s1)C(=O)C=C(NCCN1CCCCC1)C2=O [Example 20, 2-methyl-5-[(2-piperidin-1-ylethyl)amino]-1,3-benzothiazole-4,7-dione] |
|  | ≤ 10 µM |  | Cc1nc2c(s1)C(=O)C=C(NC1CCN(Cc3ccccc3)C1)C2=O (stereo not shown) [Example 22, 5-[(1-benzylpyrrolidin-3-yl)amino]-2-methyl-1,3-benzothiazole-4,7-dione] |
|  | ≤ 10 µM |  | Cc1nc2c(s1)C(=O)C=C(NCc1cccs1)C2=O [Example 8, 2-methyl-5-[(2-thienylmethyl)amino]-1,3-benzothiazole-4,7-dione] |
|  | ≤ 10 µM |  | Cc1nc2c(s1)C(=O)C=C(NCCCN(C)C(=O)OC(C)(C)C)C2=O [Example 30, tert-butyl methyl{3-[(2-methyl-4,7-dioxo-4,7-dihydro-1,3-benzothiazole-5-yl)amino]propyl}carbamate] |
|  | ≤ 10 µM |  | CCCCCC(CC)NC1=CC(=O)c2sc(C)nc2C1=O (stereo not shown) [Example 6, 5-[(1-ethylhexyl)amino]-2-methyl-1,3-benzothiazole-4,7-dione] |
|  | ≤ 10 µM |  | Cc1nc2c(s1)C(=O)C=C(NCCCNC(=O)OC(C)(C)C)C2=O [Example 31, tert-butyl 3-[(2-methyl-4,7-dioxo-4,7-dihydro-1,3-benzothiazol-5-yl)amino]propylcarbamate] |
|  | ≤ 10 µM |  | Cc1nc2c(s1)C(=O)C=C(NCCCN1CCN(C)CC1)C2=O [Example 5, 2-methyl-5-{[3-(4-methyl-1-piperazinyl)propyl]amino}-1,3-benzothiazole-4,7-dione] |
|  | ≤ 10 µM |  | Cc1nc2c(s1)C(=O)C=C(NCCCCCCN(C)C)C2=O [Example 3, 5-{[6-(dimethylamino)hexyl]amino}-2-methyl-1,3-benzothiazole-4,7-dione] |
|  | ≤ 10 µM |  | Cc1nc2c(s1)C(=O)C=C(N(CCN(C)C)Cc1ccccc1)C2=O [Example 29, 5-{benzyl[2-(dimethylamino)ethyl]amino}-2-methyl-1,3-benzothiazole-4,7-dione] |
|  | ≤ 10 µM |  | CN(C)CCNC1=CC(=O)c2sc(CN3CCN(c4ccccc4)CC3)nc2C1=O [Example 38] |
| ≤ 10 µM | ≤ 10 µM | 200 °C | CCc1nc2c(o1)C(=O)C=C(Nc1ccccc1)C2=O [Example 15, 5-anilino-2-ethyl-4,7-dihydrobenzo[d][1,3]oxazole-4,7-dione] |
|  | ≤ 10 µM |  | COCCNC1=CC(=O)c2sc(C)nc2C1=O [Example 18, 5-[(2-methoxyethyl)amino]-2-methyl-1,3-benzothiazole-4,7-dione] |
|  | ≤ 10 µM |  | Cc1nc2c(s1)C(=O)C=C(NCCN1CCOCC1)C2=O [Example 1, 2-methyl-5-{[2-(4-morpholinyl)ethyl]amino}-1,3-benzothiazole-4,7-dione] |
|  | ≤ 10 µM |  | CN(C)CCNC1=CC(=O)c2sc(CN3CCOCC3)nc2C1=O [Example 37, 5-{[2-(dimethylamino)ethyl]amino}-2-(morpholin-4-ylmethyl)-1,3-benzothiazole-4,7-dione] |
|  | ≤ 10 µM |  | Cc1nc2c(s1)C(=O)C=C(NCCN(C(C)C)C(C)C)C2=O [Example 21, 5-{[2-(diisopropylamino)ethyl]amino}-2-methyl-1,3-benzothiazole-4,7-dione] |
|  | ≤ 10 µM |  | Cc1nc2c(s1)C(=O)C=C(NCC(C)(C)CN(C)C)C2=O [Example 4, 5-{[3-(dimethylamino)-2,2-dimethylpropyl]amino}-2-methyl-1,3-benzothiazole-4,7-dione] |
|  | ≤ 10 µM | 135 °C | CCc1nc2c(o1)C(=O)C(C)=C(NCCN(C)C)C2=O [Example 55, 5-{[2-(dimethylamino)ethyl]amino}-2-ethyl-6-methyl-1,3-benzoxazole-4,7-dione] |

| IC50 [1] | IC50 [2] | melting point | SMILES |
| --- | --- | --- | --- |
|  | ≤ 10 µM |  | Cc1nc2c(s1)C(=O)C=C(NCCCCCN(C)C)C2=O [Example 27, 5-{[5-(dimethylamino)pentyl]amino}-2-methyl-1,3-benzothiazole-4,7-dione] |
|  | ≤ 10 µM |  | Cc1nc2c(s1)C(=O)C(Cl)=C(NCCN(C)C)C2=O [Example 34] |
|  | ≤ 10 µM |  | Cc1nc2c(s1)C(=O)C=C(NCCN1CCCC1)C2=O [Example 19, 2-methyl-5-[(2-pyrrolidin-1-ylethyl)amino]-1,3-benzothiazole-4,7-dione] |
| ≤ 10 µM | ≤ 10 µM | 232 °C | CCc1nc2c(o1)C(=O)C=C(Nc1ccc(F)cc1)C2=O [Example 17, 2-ethyl-5-[(4-fluorophenyl)amino]-1,3-benzoxazole-4,7-dione] |
|  | ≤ 10 µM |  | Cc1nc2c(s1)C(=O)C=C(NC1CCc3ccccc31)C2=O (stereo not shown) [Example 28, 5-(2,3-dihydro-1H-inden-1-ylamino)-2-methyl-1,3-benzothiazole-4,7-dione] |
|  | ≤ 10 µM |  | Cc1nc2c(s1)C(=O)C=C(NCCN(C)C)C2=O [Example 2, 5-{[2-(dimethylamino)ethyl]amino}-2-methyl-1,3-benzothiazole-4,7-dione hydrochloride] |
|  | ≤ 10 µM |  | CNCCCNC1=CC(=O)c2sc(C)nc2C1=O [Example 32, 2-methyl-5-{[3-(methylamino)propyl]amino}-1,3-benzothiazole-4,7-dione hydrochloride] |
|  | ≤ 10 µM |  | Cc1nc2c(s1)C(=O)C=C(NCC13CC4CC(CC(C4)C1)C3)C2=O [Example 7, 5-[(1-adamantylmethyl)amino]-2-methyl-1,3-benzothiazole-4,7-dione] |
|  | ≤ 10 µM |  | Cc1nc2c(s1)C(=O)C=C(NCc1cccc(Cl)c1)C2=O [Example 9, 5-[(3-chlorobenzyl)amino]-2-methyl-1,3-benzothiazole-4,7-dione] |
|  | ≤ 10 µM |  | Cc1nc2c(s1)C(=O)C=C(N1CCN(Cc3ccccc3)CC1)C2=O [Example 14, 5-(4-benzyl-1-piperazinyl)-2-methyl-1,3-benzothiazole-4,7-dione] |
|  | ≤ 10 µM |  | Cc1nc2c(s1)C(=O)C=C(NCCCCN(C)C)C2=O [Example 26, 5-{[4-(dimethylamino)butyl]amino}-2-methyl-1,3-benzothiazole-4,7-dione] |
|  | ≤ 10 µM |  | CN(C)CCNC1=CC(=O)c2sc(CN3CCCCC3)nc2C1=O [Example 39, 5-{[2-(dimethylamino)ethyl]amino}-2-(piperidin-1-ylmethyl)-1,3-benzothiazole-4,7-dione] |
|  | ≤ 10 µM |  | Cc1nc2c(s1)C(=O)C=C(NCCCN1CCCCC1C)C2=O (stereo not shown) [Example 25, 2-methyl-5-{[3-(2-methylpiperidin-1-yl)propyl]amino}-1,3-benzothiazole-4,7-dione] |
|  | ≤ 10 µM |  | Cc1nc2c(s1)C(=O)C=C(NCCC1CCCN1C)C2=O (stereo not shown) [Example 24, 2-methyl-5-{[2-(1-methylpyrrolidin-2-yl)ethyl]amino}-1,3-benzothiazole-4,7-dione] |
|  | ≤ 10 µM |  | Cc1nc2c(s1)C(=O)C=C(NCCCN(C)C)C2=O [Example 23, 5-{[3-(dimethylamino)propyl]amino}-2-methyl-1,3-benzothiazole-4,7-dione] |
| ≤ 10 µM | ≤ 10 µM | 159 °C | CCc1nc2c(o1)C(=O)C(Cl)=C(Nc1ccccc1)C2=O [Example 16, 5-anilino-6-chloro-2-ethyl-1,3-benzoxazole-4,7-dione] |
|  | ≤ 10 µM |  | CCCCSC1=C(NCCN(C)C)C(=O)c2nc(C)sc2C1=O [Example 36, 6-(butylthio)-5-{[2-(dimethylamino)ethyl]amino}-2-methyl-1,3-benzothiazole-4,7-dione] |
